According to PubChem BioAssay (NCI):
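Step 1: Grow cells in 96-well plates. Step 2: Expose to compound for 48 hours at 5 concentrations. Step 3: Interpolate endpoints linearly; if unreached, use highest concentration. GI50 = concentration required for 50% inhibition of growth. TGI denotes the concentration required for complete inhibition of growth.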

Experiments:
Experiment in all cases: NCI-60 cell line screen, 48 h
786-0 renal = system: 786-0 renal
A498 renal = system: A498 renal
A549 NSCLC = system: A549 NSCLC
ACHN renal = system: ACHN renal
BT-549 breast = system: BT-549 breast
CAKI-1 renal = system: CAKI-1 renal
CCRF-CEM leukemia = system: CCRF-CEM leukemia
COLO 205 colon = system: COLO 205 colon
DU-145 prostate = system: DU-145 prostate
EKVX NSCLC = system: EKVX NSCLC
HCC-2998 colon = system: HCC-2998 colon
HCT-116 colon = system: HCT-116 colon
HCT-15 colon = system: HCT-15 colon
HOP-62 NSCLC = system: HOP-62 NSCLC
HOP-92 NSCLC = system: HOP-92 NSCLC
HS 578T breast = system: HS 578T breast
HT29 colon = system: HT29 colon
IGROV1 ovarian = system: IGROV1 ovarian
K-562 leukemia = system: K-562 leukemia
KM12 colon = system: KM12 colon
LOX IMVI melanoma = system: LOX IMVI melanoma
M14 melanoma = system: M14 melanoma
MALME-3M melanoma = system: MALME-3M melanoma
MCF7 breast = system: MCF7 breast
MDA-MB-231 breast = system: MDA-MB-231 breast
MDA-MB-435 = system: MDA-MB-435
MOLT-4 leukemia = system: MOLT-4 leukemia
NCI-H226 lung = system: NCI-H226 lung
NCI-H23 lung = system: NCI-H23 lung
NCI-H460 lung = system: NCI-H460 lung
NCI-H522 lung = system: NCI-H522 lung
NCI/ADR-RES ovarian = system: NCI/ADR-RES ovarian
OVCAR-3 ovarian = system: OVCAR-3 ovarian
OVCAR-4 ovarian = system: OVCAR-4 ovarian
OVCAR-5 ovarian = system: OVCAR-5 ovarian
OVCAR-8 ovarian = system: OVCAR-8 ovarian
PC-3 prostate = system: PC-3 prostate
RPMI-8226 leukemia = system: RPMI-8226 leukemia
RXF 393 renal = system: RXF 393 renal
SF-268 CNS = system: SF-268 CNS
SF-295 CNS = system: SF-295 CNS
SF-539 CNS = system: SF-539 CNS
SK-MEL-2 melanoma = system: SK-MEL-2 melanoma
SK-MEL-28 melanoma = system: SK-MEL-28 melanoma
SK-MEL-5 melanoma = system: SK-MEL-5 melanoma
SK-OV-3 ovarian = system: SK-OV-3 ovarian
SN12C renal = system: SN12C renal
SNB-19 CNS = system: SNB-19 CNS
SR leukemia = system: SR leukemia
SW-620 colon = system: SW-620 colon
T-47D breast = system: T-47D breast
TK-10 renal = system: TK-10 renal
U251 CNS = system: U251 CNS
UACC-257 melanoma = system: UACC-257 melanoma
UACC-62 melanoma = system: UACC-62 melanoma
UO-31 renal = system: UO-31 renal

With `N#C/C(=C/C=C(\Cl)c1ccc(Cl)cc1)C(N)=O` the GI50 (786-0 renal) was 1870 nM, the TGI (786-0 renal) was 4.2 µM and the GI50 (A498 renal) was 13.2 µM. It also gave a TGI (A498 renal) of 27.7 µM, a GI50 (A549 NSCLC) of 7.54 µM and a TGI (A549 NSCLC) of 15.4 µM. For the same compound, the GI50 (ACHN renal) was 2370 nM, the TGI (ACHN renal) was 6.39 µM and the GI50 (BT-549 breast) was 7 µM. For the same compound, the TGI (BT-549 breast) was 13.9 µM, the GI50 (CAKI-1 renal) was 1290 nM and the TGI (CAKI-1 renal) was 2990 nM. The GI50 (CCRF-CEM leukemia) was 2810 nM, the TGI (CCRF-CEM leukemia) was greater than 100 µM and the GI50 (COLO 205 colon) was 5.24 µM. It also gave a TGI (COLO 205 colon) greater than 55.8 µM, a GI50 (DU-145 prostate) of 3.31 µM and a TGI (DU-145 prostate) of 12.5 µM. The GI50 (EKVX NSCLC) was 7.74 µM, the TGI (EKVX NSCLC) was 17.4 µM and the GI50 (HCC-2998 colon) was 2660 nM. The TGI (HCC-2998 colon) was 7.71 µM, the GI50 (HCT-116 colon) was 402 nM and the TGI (HCT-116 colon) was 1490 nM. For the same compound, the GI50 (HCT-15 colon) was 2790 nM, the TGI (HCT-15 colon) was greater than 32.5 µM and the GI50 (HOP-62 NSCLC) was 2360 nM. The TGI (HOP-62 NSCLC) was 4.33 µM, the GI50 (HOP-92 NSCLC) was 2470 nM and the TGI (HOP-92 NSCLC) was 9.72 µM. For the same compound, the GI50 (HS 578T breast) was 3.07 µM, the TGI (HS 578T breast) was 9.91 µM and the GI50 (HT29 colon) was 3.38 µM. It also gave a TGI (HT29 colon) greater than 36.5 µM, a GI50 (IGROV1 ovarian) greater than 20 µM and a TGI (IGROV1 ovarian) greater than 100 µM. The GI50 (K-562 leukemia) was 1470 nM, the TGI (K-562 leukemia) was greater than 100 µM and the GI50 (KM12 colon) was 2100 nM. The TGI (KM12 colon) was 4.69 µM, the GI50 (LOX IMVI melanoma) was 976 nM and the TGI (LOX IMVI melanoma) was 6.91 µM. It also gave a GI50 (M14 melanoma) of 1940 nM, a TGI (M14 melanoma) of 9.84 µM and a GI50 (MALME-3M melanoma) of 1480 nM. It also gave a TGI (MALME-3M melanoma) of 3.55 µM, a GI50 (MCF7 breast) of 4.91 µM and a TGI (MCF7 breast) greater than 100 µM. It also gave a GI50 (MDA-MB-231 breast) of 1970 nM, a TGI (MDA-MB-231 breast) of 4.82 µM and a GI50 (MDA-MB-435) of 1930 nM. The TGI (MDA-MB-435) was 4.12 µM, the GI50 (MOLT-4 leukemia) was 660 nM and the TGI (MOLT-4 leukemia) was greater than 39.8 µM. For the same compound, the GI50 (NCI-H226 lung) was 4.96 µM, the TGI (NCI-H226 lung) was 13.9 µM and the GI50 (NCI-H23 lung) was 2400 nM. It also gave a TGI (NCI-H23 lung) of 8.83 µM, a GI50 (NCI-H460 lung) of 4.65 µM and a TGI (NCI-H460 lung) greater than 100 µM. For the same compound, the GI50 (NCI-H522 lung) was greater than 22.7 µM, the TGI (NCI-H522 lung) was greater than 62.2 µM and the GI50 (NCI/ADR-RES ovarian) was 2670 nM. It also gave a TGI (NCI/ADR-RES ovarian) of 7.43 µM, a GI50 (OVCAR-3 ovarian) of 269 nM and a TGI (OVCAR-3 ovarian) of 1760 nM. For the same compound, the GI50 (OVCAR-4 ovarian) was 4.91 µM, the TGI (OVCAR-4 ovarian) was greater than 48.2 µM and the GI50 (OVCAR-5 ovarian) was 4.51 µM. The TGI (OVCAR-5 ovarian) was 17.7 µM, the GI50 (OVCAR-8 ovarian) was 6.39 µM and the TGI (OVCAR-8 ovarian) was 12.6 µM. It also gave a GI50 (PC-3 prostate) of 2180 nM, a TGI (PC-3 prostate) of 5.55 µM and a GI50 (RPMI-8226 leukemia) of 2140 nM. It also gave a TGI (RPMI-8226 leukemia) greater than 100 µM, a GI50 (RXF 393 renal) of 3.75 µM and a TGI (RXF 393 renal) greater than 57.6 µM. It also gave a GI50 (SF-268 CNS) of 3.46 µM, a TGI (SF-268 CNS) of 13.6 µM and a GI50 (SF-295 CNS) of 1650 nM. For the same compound, the TGI (SF-295 CNS) was 3.45 µM, the GI50 (SF-539 CNS) was 3.19 µM and the TGI (SF-539 CNS) was 9.27 µM. It also gave a GI50 (SK-MEL-2 melanoma) greater than 52.5 µM, a TGI (SK-MEL-2 melanoma) greater than 93.6 µM and a GI50 (SK-MEL-28 melanoma) of 3.28 µM. For the same compound, the TGI (SK-MEL-28 melanoma) was 9.88 µM, the GI50 (SK-MEL-5 melanoma) was 4.56 µM and the TGI (SK-MEL-5 melanoma) was 15.1 µM. For the same compound, the GI50 (SK-OV-3 ovarian) was 14.9 µM, the TGI (SK-OV-3 ovarian) was 42.3 µM and the GI50 (SN12C renal) was 4.38 µM. For the same compound, the TGI (SN12C renal) was 18.7 µM, the GI50 (SNB-19 CNS) was 8.13 µM and the TGI (SNB-19 CNS) was 22.7 µM. It also gave a GI50 (SR leukemia) of 2260 nM, a TGI (SR leukemia) of 20.4 µM and a GI50 (SW-620 colon) of 2100 nM. It also gave a TGI (SW-620 colon) of 4.53 µM, a GI50 (T-47D breast) of 3.26 µM and a TGI (T-47D breast) of 26.4 µM. For the same compound, the GI50 (TK-10 renal) was 1610 nM, the TGI (TK-10 renal) was 3.31 µM and the GI50 (U251 CNS) was 2290 nM. For the same compound, the TGI (U251 CNS) was 5.32 µM, the GI50 (UACC-257 melanoma) was 6.17 µM and the TGI (UACC-257 melanoma) was 11.4 µM. For the same compound, the GI50 (UACC-62 melanoma) was 5.87 µM, the TGI (UACC-62 melanoma) was 20.6 µM and the TGI (UO-31 renal) was greater than 46.8 µM.
